Laboratory results reported in ChEMBL document CHEMBL1122802, “Pyrido[3',2':4,5]thieno[3,2-d]-N-triazines: a new series of orally active antiallergic agents” (J Med Chem, 1984).

What was measured:
[1] = species on record: Rattus norvegicus; experiment: Evaluated on antigen induced release of histamine (AIR) in vitro from rat peritoneal mast cells (RMC) at multiple dose levels; format: functional, cell-based; conditions: Mast cell, read-out: I 50
[2] = system: Rattus norvegicus; experiment: Inhibition of passive cutaneous anaphylaxis (PCA) in the rat at 25 mg /kg.(orally); format: functional; conditions: po
[3] = system: Rattus norvegicus; experiment: Percent inhibition of antigen induced release of histamine (AIR) in vitro from rat peritoneal mast cells (RMC) […]; format: functional
[4] = species on record: Rattus norvegicus; experiment: Effective dose required for inhibition of passive cutaneous anaphylaxis (PCA) in the rat at multiple dose levels; format: functional
[5] = system: Rattus norvegicus; experiment: Percent inhibition of antigen induced release of histamine (AIR) in vitro from rat peritoneal mast cells (RMC) […].; format: functional
[6] = system: Rattus norvegicus; experiment: Inhibition of passive cutaneous anaphylaxis (PCA) in the rat at 30 mg /kg.(orally); format: functional; conditions: po

IC50 [1] [µM]	SMILES	inhibition in vivo at 25 mg/kg [2] [%]	I [3] [%]	ED50 [4] [mg/kg]	I [5] [%]	inhibition in vivo at 30 mg/kg [6] [%]
6	CCOCOc1nnnc2c1sc1nc(C)ccc12	22				
0.1	Cc1ccc2c(n1)sc1c(S)nnnc12					
	CSc1nnnc2c1sc1nc(C)ccc12		4			
1.7	Cc1ccc2c(n1)sc1c(N)nnnc12	38				
	CCOc1nnnc2c1sc1nc(C)ccc12	52	18	27		
11	CNc1nnnc2c1sc1nc(C)ccc12	32				
	COC(=O)NNc1nnnc2c1sc1nc(C)ccc12	5			21	
29	Cc1ccc2c(n1)sc1cnnnc12	93		1.5		
0.05	Oc1nnnc2c1sc1nc(-c3ccccc3)ccc12			3		68
80	Cc1cc(C)c2c(n1)sc1c(O)nnnc12	70		3.6		
0.25	Cc1ccc2c(n1)sc1c(O)nnnc12	88		5.2		
